The record followed here is US20250093263A1, “FRET-BASED ASSAYS” (The General Hospital Corporation, priority 2021, published 2025).

Usually Kd stands for the free concentration of one partner at which half of the binding sites on the other are occupied at equilibrium, for simple one-to-one binding. What is called IC50 is the point on the concentration scale where inhibition reaches its midpoint. High values mean weaker potency in that assay, low ones greater potency in that assay. By log D is commonly meant the decadic logarithm of the distribution of all forms, ionised or not, between an organic phase and buffer at a given pH.

Data set [1] has as its target T1, WT Keap1 (tag-free, full-length) (Homo sapiens, UniProt Q14145). Kind of data set: biochemical.
For data set [2], the target named is T1, WT Keap1 (tag-free, full-length). Kind of data set: Keap1 TR-FRET Assay 2 (CDDO-FITC/Cora-1-KL9). For orientation: In TR-FRET formats the signal depends on donor and acceptor labels being close together.
Data set [3] deals with T2, Keap1 (His/GST) (Homo sapiens, UniProt Q14145). Kind of data set: Keap1 TR-FRET Assay 3 (CDDO-FITC/Tb-Anti-6xHis). Type of data set: binding.
In data set [4] the target is T1, WT Keap1 (tag-free, full-length). The data set is described as follows: biochemical. The conditions noted are these: read-out: Assay 1: % at 100.
In data set [5] the target is T2, Keap1 (His/GST). Kind of data set: biochemical.
For data set [6] the following is noted: pH 7.4, 1-octanol / sodium phosphate buffer.
Data set [7] addresses T3, PfcProRS (Plasmodium falciparum, UniProt Q8I5R7).
T3 construct: made in house; host or cells: SoluBL-21 E. coli
The data set is described as follows: biochemical. Type of data set: binding. The conditions noted are these: PfcProRS KD, absence of substrates (0 μM ATP).
Procedure: (§1) A stock solution containing CoraFluor-1-Halo-labeled HT-PfcProRS or CoraFluor-1-Halo-labeled HT-HsProRS at the concentration specified for each experiment was prepared in assay buffer (50 mM Tris, pH 7.5, 20 mM KCl, 10 mM MgCl2, 0.05% Tween-20, 1 mM dithiothreitol, and 0.5 mg/mL BSA). […] Plates were mixed on an Ika MTS 2/4 Digital Microtiter Shaker at 750 rpm for 2 min, centrifuged at 1,000×g at 25° C. for 1 min. and allowed to equilibrate at room temperature for 2 h before TR-FRET measurements were taken. […] PRISM 9 (GraphPad) was used to perform non-linear regression analysis (one site—specific binding), plot dose-response curves, and calculate KD values.
(§2) A Multidrop Combi Reagent Dispenser (ThermoFisher Scientific) was used to dispense 20 μL of 2× protein solution into each well. […] Plates were mixed on an Ika MTS 2/4 Digital Microtiter Shaker at 750 rpm for 2 min, centrifuged at 1,000×g at 25° C. for I min, and allowed to equilibrate for 2 h at room temperature before TR-FRET measurements were taken.
(§3) PRISM 9 (GraphPad) was used to perform non-linear regression analysis (log(inhibitor) vs. response—Variable slope (four parameters)), plot dose-response curves, and calculate iC50 values.
(§4) Test compounds were dispensed in duplicate, triplicate, or sextuplicate dose-response format using a D300 digital dispenser (Hewlett Packard). […] Plates were mixed on an Ika MTS 2/4 Digital Microtiter Shaker at 750 rpm for 2 min, centrifuged at 1,000×g at 25° C. for 1 min, and allowed to equilibrate for 2 h at room temperature.
(§5) GraphPad PRISM was used to perform non-linear regression (log(inhibitor) vs. response—Variable slope (four parameters)), plot dose-response curves, and calculate IC50 values.
(§6) This assay was generally conducted in the same manner as the CoraFluor-1-Halo format with minor differences. […] Each well was supplemented with 1 nM CoraFluor-1-Pfp-labeled anti-His6 antibody before the 2 h incubation.
(§7) TR-FRET measurements were acquired in kinetic mode (1 read every ˜45 s) for at least 10 min.

Data set [8] concerns the target T4, HsProRS (Homo sapiens, UniProt P07814).
T4 construct: made in house; host or cells: SoluBL-21 E. coli
T4 sequence (P07814 996-1512): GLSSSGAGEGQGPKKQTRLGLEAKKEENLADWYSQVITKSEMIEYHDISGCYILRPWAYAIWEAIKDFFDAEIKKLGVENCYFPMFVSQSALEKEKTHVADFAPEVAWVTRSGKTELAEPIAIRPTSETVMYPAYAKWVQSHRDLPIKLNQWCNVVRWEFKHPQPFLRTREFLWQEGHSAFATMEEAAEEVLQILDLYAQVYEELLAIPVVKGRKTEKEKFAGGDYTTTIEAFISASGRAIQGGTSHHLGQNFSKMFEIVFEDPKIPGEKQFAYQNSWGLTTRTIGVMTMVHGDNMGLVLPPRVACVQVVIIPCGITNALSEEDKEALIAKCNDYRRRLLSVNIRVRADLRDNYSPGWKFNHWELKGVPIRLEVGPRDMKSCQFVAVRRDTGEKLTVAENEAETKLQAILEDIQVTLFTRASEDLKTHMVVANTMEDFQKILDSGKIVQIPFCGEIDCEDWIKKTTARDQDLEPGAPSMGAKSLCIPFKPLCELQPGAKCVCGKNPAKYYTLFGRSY
The data set is described as follows: TR-FRET ProRS ligand displacement / saturation binding assay, HsProRS. The conditions noted are these: absence of substrates; read-out: HsProRS (KD [nM]) −.
Procedure: as §1, §2, §3, §4, §5, §6, §7

Data set [9] has as its target T5, HsGluProRS (Homo sapiens, UniProt P07814).
T5 construct: assay was developed utilizing native proteins in cell lysate or intact cells; endogenous in cells
The data set is described as follows: HsGluProRS TR-FRET in HEK293 lysate. In kind it is binding. Conditions: 250 nM tracer, serially diluted HEK293T lysate, anti-HsGluProRS antibodies. From the text: Freshly prepared HEK293 cell lysates were serial diluted into flat-bottom, white 384-well plates (Corning 3572).
Abcam ab31531 was raised against an Abcam-proprietary, recombinant, full-length HsGluProRS protein. Proteintech 67712-1-Ig was raised against a peptide encoding HsGluProRS residues 1163-1512. Cell Signaling Technology CST45956 was raised against a peptide encoding residues surrounding HsGluProRS^P978. CTK0101 (ChromTek) anti-Rabbit-IgG secondary nanobody (single domain nanobody) was previously labeled with CoraFluor-1-Pfp and validated to bind Rabbit IgG antibodies with high affinity.
For the TR-FRET assay, HEK293T lysate was serially diluted into 384-well plates containing constant concentrations of tracer (either 250 nM MAT574 for ProRS or 250 nM MAT579 for GluRS), one of the antibodies (5 nM), and for the unlabeled antibodies, CoraFluor-1-Pfp labeled nano secondary (20 nM).

The target in data set [10] is T6, HscPheRS (human cytoplasmic phenylalanyl-tRNA synthetase) (Homo sapiens, UniProt Q9Y285).
T6 construct: made in house; host or cells: E. coli
T6 sequence (Q9Y285 1-508): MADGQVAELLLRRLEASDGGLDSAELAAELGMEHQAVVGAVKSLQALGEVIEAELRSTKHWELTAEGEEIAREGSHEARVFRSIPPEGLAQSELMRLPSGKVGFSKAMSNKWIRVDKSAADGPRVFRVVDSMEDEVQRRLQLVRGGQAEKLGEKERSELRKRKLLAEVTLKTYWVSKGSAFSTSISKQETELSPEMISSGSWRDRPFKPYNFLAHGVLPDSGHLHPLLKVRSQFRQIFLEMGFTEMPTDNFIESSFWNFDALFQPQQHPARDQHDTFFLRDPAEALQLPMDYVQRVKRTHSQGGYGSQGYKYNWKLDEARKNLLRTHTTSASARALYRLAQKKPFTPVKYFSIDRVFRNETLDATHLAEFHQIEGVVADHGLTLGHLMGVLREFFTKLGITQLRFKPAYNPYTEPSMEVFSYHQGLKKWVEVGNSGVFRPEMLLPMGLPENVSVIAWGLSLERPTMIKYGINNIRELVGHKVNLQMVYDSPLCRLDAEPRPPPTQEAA
T6 sequence (Q9NSD9 1-589 partner): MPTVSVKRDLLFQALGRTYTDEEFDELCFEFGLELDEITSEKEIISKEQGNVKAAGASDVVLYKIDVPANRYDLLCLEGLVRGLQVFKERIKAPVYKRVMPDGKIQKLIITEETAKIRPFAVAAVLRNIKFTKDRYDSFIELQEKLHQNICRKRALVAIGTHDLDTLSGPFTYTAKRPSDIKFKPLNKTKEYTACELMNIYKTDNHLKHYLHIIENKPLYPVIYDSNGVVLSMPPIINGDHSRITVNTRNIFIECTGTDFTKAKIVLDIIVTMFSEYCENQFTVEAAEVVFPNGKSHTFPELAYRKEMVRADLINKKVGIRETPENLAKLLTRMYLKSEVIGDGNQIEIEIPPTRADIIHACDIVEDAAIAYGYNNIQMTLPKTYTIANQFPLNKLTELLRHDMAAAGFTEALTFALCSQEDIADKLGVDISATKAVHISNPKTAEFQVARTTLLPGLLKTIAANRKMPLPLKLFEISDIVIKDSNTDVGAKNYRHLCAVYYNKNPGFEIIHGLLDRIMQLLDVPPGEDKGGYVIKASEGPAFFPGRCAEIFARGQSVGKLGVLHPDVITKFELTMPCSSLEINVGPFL
The data set is described as follows: PheRS activity-based assay, HscPheRS. Type of data set: biochemical.

In data set [11] the target is T7, MtbPheRS (Mycobacterium tuberculosis phenylalanyl-tRNA synthetase) (Mycobacterium tuberculosis, UniProt P9WFU3).
T7 construct: made in house; host or cells: Mycobacterium
The data set is described as follows: PheRS activity-based assay, MtbPheRS. Type of data set: biochemical.

Values joined by “and” are separate entries in the source; they are usually repeats but may differ in a detail not shown here. Equal values may be shown once. Where a name gives a salt, the structure may show the parent alone. Read-outs that look alike come from different tables or passages of the source.

T2 sequence (Q14145 whole entry): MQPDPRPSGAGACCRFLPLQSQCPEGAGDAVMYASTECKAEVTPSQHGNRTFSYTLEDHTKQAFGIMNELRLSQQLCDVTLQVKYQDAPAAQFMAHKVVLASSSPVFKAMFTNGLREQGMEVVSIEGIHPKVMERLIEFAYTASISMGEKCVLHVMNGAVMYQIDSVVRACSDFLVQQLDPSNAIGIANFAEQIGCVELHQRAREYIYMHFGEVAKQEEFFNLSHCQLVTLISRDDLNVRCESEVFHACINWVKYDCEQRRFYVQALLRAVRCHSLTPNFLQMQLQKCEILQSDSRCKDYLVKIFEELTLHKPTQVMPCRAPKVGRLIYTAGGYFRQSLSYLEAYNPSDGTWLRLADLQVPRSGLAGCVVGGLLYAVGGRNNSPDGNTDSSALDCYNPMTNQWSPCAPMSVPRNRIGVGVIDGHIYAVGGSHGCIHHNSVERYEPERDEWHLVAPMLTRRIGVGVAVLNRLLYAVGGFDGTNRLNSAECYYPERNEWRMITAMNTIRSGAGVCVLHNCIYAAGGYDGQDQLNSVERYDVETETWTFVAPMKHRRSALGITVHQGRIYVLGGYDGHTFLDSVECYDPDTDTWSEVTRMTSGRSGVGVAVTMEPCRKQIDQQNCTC
T1 sequence (Q14145 whole entry): as above
T7 sequence (P9WFU3 whole entry): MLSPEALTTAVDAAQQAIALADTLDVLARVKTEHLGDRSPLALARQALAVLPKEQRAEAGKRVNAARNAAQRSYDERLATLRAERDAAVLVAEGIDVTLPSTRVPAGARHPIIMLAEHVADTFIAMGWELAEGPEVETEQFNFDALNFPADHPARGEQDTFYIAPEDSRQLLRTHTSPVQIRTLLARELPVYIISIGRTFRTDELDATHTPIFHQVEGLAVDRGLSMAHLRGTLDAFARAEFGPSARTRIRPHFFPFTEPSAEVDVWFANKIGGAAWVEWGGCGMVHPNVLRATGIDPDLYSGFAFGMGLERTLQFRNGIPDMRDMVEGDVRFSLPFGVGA
T7 sequence (P9WFU1 whole entry, further chain): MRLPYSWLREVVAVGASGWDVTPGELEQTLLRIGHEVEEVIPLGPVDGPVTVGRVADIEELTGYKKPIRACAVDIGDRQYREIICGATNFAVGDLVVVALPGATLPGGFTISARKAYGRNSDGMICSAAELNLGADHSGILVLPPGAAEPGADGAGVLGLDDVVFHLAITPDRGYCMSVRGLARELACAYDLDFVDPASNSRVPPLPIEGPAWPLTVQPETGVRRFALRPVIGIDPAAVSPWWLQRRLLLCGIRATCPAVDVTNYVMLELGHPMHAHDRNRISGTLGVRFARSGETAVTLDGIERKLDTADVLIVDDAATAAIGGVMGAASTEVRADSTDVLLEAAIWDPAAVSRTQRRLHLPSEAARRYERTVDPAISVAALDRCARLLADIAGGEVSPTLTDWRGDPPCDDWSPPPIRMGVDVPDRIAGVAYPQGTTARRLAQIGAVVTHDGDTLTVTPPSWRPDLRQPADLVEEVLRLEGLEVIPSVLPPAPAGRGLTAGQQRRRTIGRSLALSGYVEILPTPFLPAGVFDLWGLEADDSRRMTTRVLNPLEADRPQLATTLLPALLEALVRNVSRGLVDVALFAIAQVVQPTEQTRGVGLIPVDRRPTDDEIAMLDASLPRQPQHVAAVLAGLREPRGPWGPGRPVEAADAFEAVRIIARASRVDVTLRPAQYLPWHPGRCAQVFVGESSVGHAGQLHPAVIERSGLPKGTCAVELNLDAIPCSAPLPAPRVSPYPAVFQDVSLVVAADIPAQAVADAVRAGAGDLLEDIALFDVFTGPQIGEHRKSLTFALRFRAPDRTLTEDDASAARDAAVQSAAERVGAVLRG
T5 sequence (P07814 whole entry): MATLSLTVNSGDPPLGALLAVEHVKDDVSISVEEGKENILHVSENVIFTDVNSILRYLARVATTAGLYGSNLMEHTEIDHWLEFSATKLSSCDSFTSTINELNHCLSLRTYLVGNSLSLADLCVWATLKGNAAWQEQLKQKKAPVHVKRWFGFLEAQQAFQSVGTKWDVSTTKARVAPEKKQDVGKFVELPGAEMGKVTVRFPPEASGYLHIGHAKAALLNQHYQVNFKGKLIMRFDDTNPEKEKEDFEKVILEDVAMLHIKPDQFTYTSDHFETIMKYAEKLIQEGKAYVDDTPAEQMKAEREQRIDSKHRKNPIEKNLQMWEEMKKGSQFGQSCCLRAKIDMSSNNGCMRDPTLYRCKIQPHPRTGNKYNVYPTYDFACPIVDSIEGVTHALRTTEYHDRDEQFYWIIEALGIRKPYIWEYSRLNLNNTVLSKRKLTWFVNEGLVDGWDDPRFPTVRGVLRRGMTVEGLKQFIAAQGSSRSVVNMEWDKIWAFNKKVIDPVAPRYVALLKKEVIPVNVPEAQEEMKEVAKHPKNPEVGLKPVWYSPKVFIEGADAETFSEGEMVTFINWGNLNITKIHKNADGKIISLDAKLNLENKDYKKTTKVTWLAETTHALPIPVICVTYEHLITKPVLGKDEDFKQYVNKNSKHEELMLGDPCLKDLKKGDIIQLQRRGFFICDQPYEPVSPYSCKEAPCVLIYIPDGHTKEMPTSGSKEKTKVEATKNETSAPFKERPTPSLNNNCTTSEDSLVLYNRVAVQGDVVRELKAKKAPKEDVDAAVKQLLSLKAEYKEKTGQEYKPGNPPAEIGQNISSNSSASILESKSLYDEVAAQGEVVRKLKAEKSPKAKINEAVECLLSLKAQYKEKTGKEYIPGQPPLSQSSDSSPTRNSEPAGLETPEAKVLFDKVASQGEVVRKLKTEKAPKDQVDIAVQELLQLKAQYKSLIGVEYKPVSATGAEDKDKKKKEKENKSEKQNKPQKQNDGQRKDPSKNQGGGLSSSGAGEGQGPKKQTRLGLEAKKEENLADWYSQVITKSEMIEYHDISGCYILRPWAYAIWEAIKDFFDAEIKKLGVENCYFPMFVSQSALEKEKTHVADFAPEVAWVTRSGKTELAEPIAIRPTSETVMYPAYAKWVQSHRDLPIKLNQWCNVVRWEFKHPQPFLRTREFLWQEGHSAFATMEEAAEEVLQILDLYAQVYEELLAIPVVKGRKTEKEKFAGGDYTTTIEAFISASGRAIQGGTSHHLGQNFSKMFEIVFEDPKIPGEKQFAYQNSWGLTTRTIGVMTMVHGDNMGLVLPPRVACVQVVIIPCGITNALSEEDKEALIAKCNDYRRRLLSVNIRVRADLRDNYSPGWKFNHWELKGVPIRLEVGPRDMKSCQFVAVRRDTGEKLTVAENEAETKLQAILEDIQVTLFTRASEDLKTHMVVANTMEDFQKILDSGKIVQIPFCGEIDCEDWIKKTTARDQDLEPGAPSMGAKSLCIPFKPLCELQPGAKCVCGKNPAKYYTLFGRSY
T3 sequence (Q8I5R7 249-746): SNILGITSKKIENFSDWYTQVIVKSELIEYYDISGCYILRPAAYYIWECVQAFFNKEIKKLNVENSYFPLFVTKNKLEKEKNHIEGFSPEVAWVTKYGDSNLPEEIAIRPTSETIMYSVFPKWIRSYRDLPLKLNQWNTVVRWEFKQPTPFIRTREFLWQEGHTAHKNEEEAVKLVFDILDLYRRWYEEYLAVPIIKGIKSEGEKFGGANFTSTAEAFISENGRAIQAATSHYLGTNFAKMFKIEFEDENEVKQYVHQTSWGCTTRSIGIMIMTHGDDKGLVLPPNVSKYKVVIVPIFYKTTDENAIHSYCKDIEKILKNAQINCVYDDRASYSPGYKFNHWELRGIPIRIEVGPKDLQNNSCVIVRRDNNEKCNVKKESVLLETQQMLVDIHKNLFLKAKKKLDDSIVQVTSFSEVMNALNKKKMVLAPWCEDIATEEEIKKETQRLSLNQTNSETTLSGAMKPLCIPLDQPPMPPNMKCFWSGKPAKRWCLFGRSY

Turning to `CC1(C)CC[C@]2(C(=O)NCCCOCCOCCOCCCNC(=S)Nc3ccc(-c4c5ccc(=O)cc-5oc5cc(O)ccc45)c(C(=O)O)c3)CC[C@]3(C)[C@H](C(=O)C=C4[C@@]5(C)C=C(C#N)C(=O)C(C)(C)[C@@H]5CC[C@]43C)[C@@H]2C1` [CDDO-FITC, 5-(3-(1-((4aS,6aR,6bS,8aR,12aS,14aR,14bS)-11-cyano-2,2,6a,6b,9,9,12a-heptamethyl-10,14-dioxo-1,3,4,5,6,6a,6b,7,8,8a,9,10,12a,14,14a,14b-hexadecahydropicen-4a(2H)-yl)-1-oxo-6,9,12-trioxa-2-azapentadecan-15-yl)thioureido)-2-(6-hydroxy-3-oxo-3H-xanthen-9-yl)benzoic acid], the Kd turned out to be 164 nM in [1]; 164 ± 37.1 nM in data set [2] (Kd of CDDO-FITC, saturation binding at fixed Cora-1-KL9 and Keap1, one-site model).
`Cc1sc2c(c1C)C(c1ccc(Cl)cc1)=NC(CC(=O)NCCCOCCOCCOCCCNC(=O)[C@]13CCC(C)(C)C[C@H]1[C@H]1C(=O)C=C4[C@@]5(C)C=C(C#N)C(=O)C(C)(C)[C@@H]5CC[C@@]4(C)[C@]1(C)CC3)c1nnc(C)n1-2` (stereo partly drawn) [CDDO-JQ1, (4aS,6aR,6bS,8aR,12aS,14aR,14bS)-N-(1-(4-(4-chlorophenyl)-2,3,9-trimethyl-6H-thieno[3,2-f][1,2,4]triazolo[4,3-a][1,4]diazepin-6-yl)-2-oxo-7,10,13-trioxa-3-azahexadecan-16-yl)-11-cyano-2,2,6a,6b,9,9,12a-heptamethyl-10,14-dioxo-1,3,4,5,6,6a,6b,7,8,8a,9,10,12a,14,14a,14b-hexadecahydropicene-4a(2H)-carboxamide]: the IC50 in data set [1] was determined as 3370 nM; in data set [3] it was 2680 nM; in [5], 495000 nM. In addition, the Kd in [1] was 1770 nM. Also, in data set [2] (Assay-2), the “fold less potent than CDDO (CDDO/CDDO-Me)” value was > 250 fold and > 500 fold. For the same molecule, the inhibition at 100 µM in data set [4] is under 5%.
As for `COC(=O)[C@]12CCC(C)(C)C[C@H]1[C@H]1C(=O)C=C3[C@@]4(C)C=C(C#N)C(=O)C(C)(C)[C@@H]4CC[C@@]3(C)[C@]1(C)CC2` [CDDO-Me, bardoxolone methyl], the values for the IC50 in data set [1], in [3] and in data set [5] were 24 nM, 11 nM and 103000 nM, respectively. The molecule further came in with a Kd in data set [1] of 13 nM. Besides, the inhibition at 100 µM in [4] was under 10%.
With `O=C(CCCCCN1CCN2CCNC(=O)c3cccc(c3[O-])C(=O)NCCN(CCNC(=O)c3cccc(c3[O-])C1=O)CCN1CCNC(=O)c3cccc(c3[O-])C(=O)NCCN(CCNC(=O)c3cccc(c3[O-])C(=O)NCC1)CC2)NCCOCCOCCCCCCCl.[Tb+3]` [Cora-1-Halo], the “log D” value in data set [6] was −0.7.
As for `O=C(CCCCCN1CCN2CCNC(=O)c3cc(Cl)cc(c3[O-])C(=O)NCCN(CCNC(=O)c3cc(Cl)cc(c3[O-])C1=O)CCN1CCNC(=O)c3cc(Cl)cc(c3[O-])C(=O)NCCN(CCNC(=O)c3cc(Cl)cc(c3[O-])C(=O)NCC1)CC2)NCCOCCOCCCCCCCl.[Tb+3]` [Cora-2-Halo], the “log D” value in [6] is reported as 0.7.
With `COC(=O)/C=C/C(=O)OC` [DMF, dimethyl fumarate], the IC50 stood at 129000 nM in data set [1], 64800 nM in data set [3] and 266000 nM in [5]. Moreover, the Kd in data set [1] came out at 67400 nM. The inhibition at 100 µM in data set [4] was under 5%.
On to `Nc1ncnc2c1ncn2[C@@H]1O[C@H](CN(CCCCCCOCCOCCNC(=O)c2ccc(C(=O)O)c(-c3c4ccc(=O)cc-4oc4cc(O)ccc34)c2)S(=O)(=O)NC(=O)[C@@H]2CCCN2)[C@@H](O)[C@H]1O` [MAT574, 4-((2-(2-((6-((N-(L-prolyl)sulfamoyl)(((2R,3S4R,5R)-5-(6-amino-9H-purin-9-yl)-3,4-dihydroxytetrahydrofuran-2-yl)methyl)amino)hexyl)oxy)ethoxy)ethyl)carbamoyl)-2-(6-hydroxy-3-oxo-3H-xanthen-9-yl)benzoic acid], for which the dissociation constant (Kd) turned out to be 2270 nM in [7] and 72.2 nM in [8]. Moreover, the “TR-FRET signal” value in data set [9] was “specific TR-FRET signal”.
Regarding `Nc1ncnc2c1ncn2[C@@H]1O[C@H](CN(CCCCCCOCCOCCNC(=O)c2ccc(C(=O)O)c(-c3c4ccc(=O)cc-4oc4cc(O)ccc34)c2)S(=O)(=O)NC(=O)[C@@H](N)CCC(=O)O)[C@@H](O)[C@H]1O` [MAT579, 4-((2-(2-((6-((N-(L-glutamyl)sulfamoyl)(((2R,3S,4R,5R)-5-(6-amino-9H-purin-9-yl)-3,4-dihydroxytetrahydrofuran-2-yl)methyl)amino)hexyl)oxy)ethoxy)ethyl)carbamoyl)-2-(6-hydroxy-3-oxo-3H-xanthen-9-yl)benzoic acid], in data set [9], the “TR-FRET signal” value is “No TR-FRET signal was observed”.
`Nc1ncnc2c1ncn2[C@@H]1O[C@H](CNS(=O)(=O)NC(=O)[C@@H](N)Cc2ccccc2)[C@@H](O)[C@H]1O` [PheSNA, (S)-amino-N-(N-(((2R,3S,4R,5R)-5-(6-amino-9H-purin-9-yl)-3,4-dihydroxytetrahydrofuran-2-y)methyl)sulfamoyl)-3-phenylpropanamide]: the IC50 was found to be 140 nM in data set [10] and 2000 nM in [11].
Molecule “(S)-2-amino-N-(N-(((2R,3S,4R,5R)-S-(6-amino-9H-purin-9-yl)-3,4-dihydroxytetrahydrofuran-2-yl)methyl)-N-(6-(2-(2-aminoethoxy)ethoxy)hexyl)sulfamoyl)-3-phenylpropanamide [MAT581]” gave an IC50 in data set [11] (phenylalanine 100 μM, ATP 200 μM) of 206000 nM.
